Organism: Rattus norvegicus
Experiment: DrugMatrix - Regimen: Daily Repeat
Assay type: toxicity, organism-based, Sprague-Dawley
Parameters: regimen Daily Repeat, gender Male, age 6-8 weeks
Conditions: in vivo, po, route oral GAVAGE, vehicle 100 % WATER
[1] = 70 mg/kg, 72 h, tissue Blood, dose level Low, time 3 day
[2] = 70 mg/kg, 72 h, tissue Plasma, dose level Low, time 3 day
[3] = 70 mg/kg, 120 h, tissue Blood, dose level Low, time 5 day
[4] = 70 mg/kg, 120 h, tissue Plasma, dose level Low, time 5 day
[5] = 700 mg/kg, 72 h, tissue Blood, dose level High, time 3 day
[6] = 700 mg/kg, 72 h, tissue Plasma, dose level High, time 3 day
[7] = 700 mg/kg, 120 h, tissue Blood, dose level High, time 5 day
[8] = 700 mg/kg, 120 h, tissue Plasma, dose level High, time 5 day

## MANGANESE CHLORIDE ANHYDROUS
[1]
  ABSOLUTE BASOPHIL: 0 CELLS/uL
  ABSOLUTE EOSINOPHIL: 0 CELLS/uL
  ABSOLUTE LYMPHOCYTE: 8843.67 CELLS/uL
  ABSOLUTE MONOCYTE: 103.33 CELLS/uL
  ABSOLUTE SEGMENTED NEUTROPHIL: 819.67 CELLS/uL
  BASOPHIL: 0%
  EOSINOPHIL: 0%
  ERYTHROCYTE COUNT: 5.19 x10E6/uL
  HEMATOCRIT: 32.17%
  HEMOGLOBIN: 12.2 G/DL
  LEUKOCYTE COUNT: 9.77 x10E3/uL
  LYMPHOCYTE: 90%
  MEAN CORPUSCULAR HEMOGLOBIN: 23.5 pg
  MEAN CORPUSCULAR HEMOGLOBIN CONCENTRATION: 37.93 G/DL
  MEAN CORPUSCULAR VOLUME: 61.97 fL
  MONOCYTE: 0.67%
  NUCLEATED RED BLOOD CELLS: 0 /100WBC
  PLATELET COUNT: 1240.67 x10E3/uL
[2]
  ALANINE AMINOTRANSFERASE: 53.33 u/L
  ALKALINE PHOSPHATASE: 482 u/L
  ASPARTATE AMINOTRANSFERASE: 91.67 u/L
  BLOOD UREA NITROGEN: 13.33 mg/dL
  CARBON DIOXIDE: 35.33 mmol/L
  CHLORIDE: 99 MEQ/L
  CHOLESTEROL: 84 mg/dL
  CREATINE PHOSPHOKINASE: 442.33 u/L
  CREATININE: 0.22 mg/dL
  GLUCOSE: 139.33 mg/dL
  LACTATE DEHYDROGENASE: 131 u/L
  PHOSPHORUS: 12.07 mg/dL
  POTASSIUM: 6.21 MEQ/L
  TOTAL BILIRUBIN: 0.17 mg/dL
  TOTAL PROTEIN: 6.27 G/DL
  URIC ACID: 0.57 mg/dL
[3]
  ABSOLUTE BASOPHIL: 0 CELLS/uL
  ABSOLUTE EOSINOPHIL: 184.33 CELLS/uL
  ABSOLUTE MONOCYTE: 189.67 CELLS/uL
  ABSOLUTE SEGMENTED NEUTROPHIL: 2003 CELLS/uL
  BASOPHIL: 0%
  EOSINOPHIL: 1%
  ERYTHROCYTE COUNT: 4.88 x10E6/uL
  HEMATOCRIT: 30.07%
  HEMOGLOBIN: 11.73 G/DL
  LEUKOCYTE COUNT: 15.07 x10E3/uL
  LYMPHOCYTE: 84%
  MEAN CORPUSCULAR HEMOGLOBIN: 24.27 pg
  MEAN CORPUSCULAR HEMOGLOBIN CONCENTRATION: 39.03 G/DL
  NEUTROPHIL: 13.67%
  NUCLEATED RED BLOOD CELLS: 0.33 /100WBC
  PLATELET COUNT: 1245 x10E3/uL
[4]
  ALANINE AMINOTRANSFERASE: 35.67 u/L
  ALBUMIN: 3.9 G/DL
  ALKALINE PHOSPHATASE: 338 u/L
  ASPARTATE AMINOTRANSFERASE: 64.33 u/L
  BLOOD UREA NITROGEN: 13.67 mg/dL
  CARBON DIOXIDE: 31.67 mmol/L
  CHOLESTEROL: 69.33 mg/dL
  CREATINE PHOSPHOKINASE: 218 u/L
  CREATININE: 0.22 mg/dL
  GLUCOSE: 158.33 mg/dL
  LACTATE DEHYDROGENASE: 105.67 u/L
  PHOSPHORUS: 13.3 mg/dL
  POTASSIUM: 6.22 MEQ/L
  TOTAL BILIRUBIN: 0.17 mg/dL
  TOTAL PROTEIN: 5.83 G/DL
[5]
  ABSOLUTE BASOPHIL: 0 CELLS/uL
  ABSOLUTE EOSINOPHIL: 33.67 CELLS/uL
  ABSOLUTE LYMPHOCYTE: 10434.33 CELLS/uL
  ABSOLUTE MONOCYTE: 178.67 CELLS/uL
  ABSOLUTE SEGMENTED NEUTROPHIL: 1653.33 CELLS/uL
  BASOPHIL: 0%
  EOSINOPHIL: 0.33%
  ERYTHROCYTE COUNT: 4.97 x10E6/uL
  HEMATOCRIT: 30.43%
  HEMOGLOBIN: 11.8 G/DL
  LEUKOCYTE COUNT: 12.3 x10E3/uL
  LYMPHOCYTE: 85.67%
  MEAN CORPUSCULAR HEMOGLOBIN: 23.77 pg
  MEAN CORPUSCULAR HEMOGLOBIN CONCENTRATION: 38.77 G/DL
  NEUTROPHIL: 12.67%
  NUCLEATED RED BLOOD CELLS: 0 /100WBC
  PLATELET COUNT: 1357.33 x10E3/uL
[6]
  ALANINE AMINOTRANSFERASE: 45 u/L
  ALBUMIN: 3.77 G/DL
  ALKALINE PHOSPHATASE: 329.67 u/L
  ASPARTATE AMINOTRANSFERASE: 86.33 u/L
  BLOOD UREA NITROGEN: 13.67 mg/dL
  CARBON DIOXIDE: 36.33 mmol/L
  CHLORIDE: 99 MEQ/L
  CHOLESTEROL: 63.33 mg/dL
  CREATINE PHOSPHOKINASE: 347.67 u/L
  CREATININE: 0.26 mg/dL
  GLUCOSE: 139.67 mg/dL
  LACTATE DEHYDROGENASE: 119 u/L
  PHOSPHORUS: 11.6 mg/dL
  POTASSIUM: 5.86 MEQ/L
  SODIUM: 145.53 MEQ/L
  TOTAL BILIRUBIN: 0.17 mg/dL
  TOTAL PROTEIN: 6.23 G/DL
  URIC ACID: 0.47 mg/dL
[7]
  ABSOLUTE BASOPHIL: 0 CELLS/uL
  ABSOLUTE EOSINOPHIL: 0 CELLS/uL
  ABSOLUTE LYMPHOCYTE: 14144.67 CELLS/uL
  ABSOLUTE MONOCYTE: 257.33 CELLS/uL
  ABSOLUTE SEGMENTED NEUTROPHIL: 3531.33 CELLS/uL
  BASOPHIL: 0%
  EOSINOPHIL: 0%
  ERYTHROCYTE COUNT: 5.15 x10E6/uL
  HEMATOCRIT: 30.93%
  HEMOGLOBIN: 11.9 G/DL
  LEUKOCYTE COUNT: 17.93 x10E3/uL
  LYMPHOCYTE: 79.67%
  MEAN CORPUSCULAR HEMOGLOBIN: 23.1 pg
  MEAN CORPUSCULAR VOLUME: 60.03 fL
  NEUTROPHIL: 19%
  NUCLEATED RED BLOOD CELLS: 0 /100WBC
  PLATELET COUNT: 1336.67 x10E3/uL
[8]
  ALANINE AMINOTRANSFERASE: 40 u/L
  ALKALINE PHOSPHATASE: 346.33 u/L
  ASPARTATE AMINOTRANSFERASE: 68.67 u/L
  BLOOD UREA NITROGEN: 12.67 mg/dL
  CARBON DIOXIDE: 33.67 mmol/L
  CHOLESTEROL: 76.33 mg/dL
  CREATINE PHOSPHOKINASE: 209.67 u/L
  CREATININE: 0.31 mg/dL
  GLUCOSE: 139.67 mg/dL
  LACTATE DEHYDROGENASE: 88.67 u/L
  POTASSIUM: 5.7 MEQ/L
  TOTAL BILIRUBIN: 0.17 mg/dL
  TOTAL PROTEIN: 5.97 G/DL
  URIC ACID: 0.4 mg/dL

Reference: ChEMBL document CHEMBL3885881, “DrugMatrix”
